Reference: patent publication US12139505B2, “Compositions useful in therapy of autophagy-related pathologies, and methods of making and using the same” (The University of Toledo, priority 2017, dated 2024)
Entries after “also recorded” stand apart in the source; their conditions may differ.

Legend:
[1] = test system: SH-SY5Y cells; experiment: Cell viability, MTS assay; assay type: cell-based, human; conditions: for average cell viability: 24 hours; for toxicity to neuroblastoma cells: 0.1 to 1 μM
Experimental: Synthesized compounds were added to a 3-dram screw capped vial, followed by DMSO (ca. 5 mL) to make a 10 mM stock solution. The test stock solution was made and used on the same day. 100 μL of the 10 mM stock solution was diluted into 900 μL of DMSO (1:9 dilution) to make 1 mM stock solution. 100 μL of the 1 mM stock solution was diluted into 900 μL of DMSO (1:9 dilution) to make a 100 μM solution. 100 μL of the 100 μM stock solution was diluted into 900 µL of DMSO (1:9 dilution) to make a 10 μM stock solution. The test solutions were prepared by using the dilution ratio of 10 μL stock solutions into 990 μL (1:99 dilution) of Complete Culture Media (CCM) to afford drug solution (1% DMSO) from 0.1 to 100 μM. For positive control: 10 mg/mL of TritonX-100 is diluted in CCM. For negative control: 1 μL of DMSO is dissolved in every 100 μL of CCM.
Cells were grown in bulk in 100 mm petri dishes. On the day of use, the cell culture media was removed from the dish. SH-SY5Y cells were washed with PBS, then 0.25% Trypsin/EDTA was used to aid in detaching the cells, CCM was then added to neutralize the Trypsin/EDTA and wash the cells from the dish. Washed cells are collected in a centrifuge tube for concentration. After centrifugation at 2000 RPM for 5 minutes, the cells were re-suspended in CCM. The final concentration of cells was 5×10^3 per 100 μL The 5000 cells/100 μL solution was seeded into a clear, flat bottomed, 96-well microliter plate and incubated for 24 hours at 37° C. in 5% CO2. After 24 hours, the media was removed and replaced by 100 μL CCM containing the drug/positive/negative control and was incubated at 37° C. in a 5% CO2 for 24 hours. After this incubation period, 20 μL of MTS solution was added to each well via a multichannel pipette. The plates were shaken by hand to thoroughly mix the MTS solution into the media and incubated at 37° C. in a 5% CO2 for 4 hours. The absorbance was read at 490 nm using the Synergy Neo microplate reader.

[2] = test system: gmr-Gal4;UAS-C9orf72polyGR36 flies; experiment: Fly eye neurodegeneration assay, C9orf72 ALS model; assay type: in vivo, Drosophila melanogaster
Experimental: The base for the food was a cornmeal agar product, Nutri-fly BF (Genesee Scientific, Box of 10, 1-liter bags, Cat #66-112). In a 2 L beaker, 1 L of ultrapure water was heated to […], with the stir bar speed set to 600. To the beaker, one bag of Nutri-fly BF was added in small portions. The beaker was covered to maintain temperature (monitored with an inserted thermometer) while stirring as rapidly as possible until the temperature reached 97° C. The food was stirred at this temperature for 10 minutes using a wooden spoon/spatula, then allowed to cool to approximately 65° C. with continuous stirring (magnetic bar). At 65° C., while maintaining constant stirring, 12 mL of Tegosept was added followed by 7 mL of propionic acid solution. To be used as fly maintenance food, the food was allowed to cool to 55° C. and 4 mL of the food was aliquoted (to a depth of approximately 1 inch) into individual vials with mity drosophila plugs (VWR #75813-162 and #10054-506). For use as a drug delivery vehicle, the food was allowed to cool to room temperature while covered with aluminum foil, then sealed with parafilm stored at 4° C. […] To prepare the drug-infused-food, about half of the calculated food, accurately measured, was added to a 250 mL beaker, followed by the drug (no carrier solvent is used). […]

[3] = test system: PINK1^B9 flies; experiment: Fly longevity (survival) assay; assay type: in vivo, Drosophila melanogaster
Experimental: 2-n-hexyl-LKE-P was dissolved in DMSO and supplemented into a warm solution of minimal media (5% sucrose, 2% agarose and water, 60° C.) to a final concentration of 10, 100 and 1000 μM. Freshly eclosed adult flies were transferred to minimal media containing the drug for one day followed by the experiments. 15 flies from each group were placed in a vial containing food, kept on its side to prevent the flies from sticking to the media, at 23° C., 60% humidity, under a 12-h light-dark cycle. Food vials were changed every 2-3 days and the dead flies were counted daily. Over 100 flies were prepared for each genotype and the experiments were carried out three times. The number of surviving flies on each day was converted to surviving days for each fly and imported to GraphPad Prism. Kaplan-Meier surviving curves were graphed and statistics was performed by log-rank test on the surviving data to compare the longevity with different treatment.

[4] = test system: PINK1^B9 flies; experiment: Fly climbing assay; assay type: in vivo, Drosophila melanogaster; conditions: 100 μM in media
Experimental: 2-n-hexyl-LKE-P was dissolved in DMSO and supplemented into a warm solution of minimal media (5% sucrose, 2% agarose and water, 60° C.) to a final concentration of 10, 100 and 1000 μM. Freshly eclosed adult flies were transferred to minimal media containing the drug for one day followed by the experiments. The locomotive ability of flies was assessed 10 days after eclosion via a climbing assay. 15 flies were transferred to a tube marked 17.5 cm from the bottom and a digital camera, connected directly to a PC, recorded flies as they cross the line, continuously, for two minutes. Analysis of the recorded video was done by recording the number of flies that remain above the 17.5 cm line every ten seconds. If a fly climbs back down or falls, that fly is removed from the total count at the next 10 second time point. The percentage of flies remaining above the line at the 120 second time point was recorded. The 120 second time point was chosen because it has been previously determined that this is the average amount of time required for all untreated flies to cross the 17.5 cm mark.

For `CCCCCCC1=C(P(=O)(O)O)N[C@H](C(=O)OCC)CS1` [2-n-hexyl-LKE-P], which “concentration at which toxicity begins to show” value [1] is on record?
The value was 10 µM.

What about the average cell viability ([1]; 10 μM) of the same compound?
Its average cell viability is 83%.

And the average cell viability ([1]; 100 μM)?
The average cell viability was 63%.

And the “toxicity to neuroblastoma cells” value [1]?
The value was “not toxic”.

And the “toxicity to neuroblastoma cells” value ([1]; listed as 2-n-heyxl-LKE-P)?
Its value is “no toxicity”.

What about the “failure to eclose from the pupa” value ([2]; GR dipeptides at repeat number of 100 in the eyes) of the same compound?
Its value is “not able to rescue this phenotype”.

And the eye phenotype ([2]; polyGR36 in eyes, 1 and 2 mM in food throughout lifespan)?
Its eye phenotype is “alleviate the eye phenotype in a concentration-dependent manner”.

What about the “survival of PINK1^B9 flies” value ([3]; 10 μM in media) of the same compound?
The value was “did not significantly affect the survival”.

What about the “survival of PINK1^B9 flies” value ([3]; 100 μM in media) of the same compound?
Its value is “did not significantly affect the survival”.

What about the “lifespan of PINK1^B9 flies” value ([3]; 1000 μM in media) of the same compound?
Its value is “extended the lifespan; also recorded: significantly increased the PINK1^B9 lifespan”.

What about the “lifespan of PINK1^B9 flies” value ([3]; dose not stated (summary)) of the same compound?
Its value is “more than double the lifespan”.

And the “climbing ability of PINK1^B9 flies” value [4]?
The value was “statistically significant improvement in the climbing ability; also recorded: significant improvement of PINK1^B9 climbing ability”.
